# Patent US8748173B2 (priority 1998, dated 2014)
# Where “and” joins values, the source holds several entries; their conditions need not be identical. Equal values may be shown once.
# Tested on: Bacillus subtilis spores
# Format: binding
Substance,concentration at which the peptide stained spores,binding to B. subtilis spores
Peptide 7183 consensus (RFTISRDNAKNTLYLQMSC; Peptide 7183 artificial peptide corresponding to consensus sequence in 7183 VH gene family.) [reference compound],200 μg/ml and 100 μM,–
Peptide Anti-spore (RFTISRDNPKNTLFLQMTC; Peptide Anti-spore artificial peptide corresponding to consensus sequence in the framework 3 region of antibodies against Bacillus subtilis spores.),2 μg/ml and 1 μM,bind strongly and specifically
